Assay [1] has as its system TGFβ signaling in NIH3T3-E1 cells. Put plainly: TGFβ target gene expression (Q-RT-PCR) in NIH3T3 cells. Type of assay: cell-based, mouse. The following applies: NIH3T3 cells, TGFβ 20 ng/mL. Here is the method:
Total RNA was extracted with the RNeasy Plus Mini Kit from Qiagen (Hilden, Germany) according to the manufacturer’s instructions. One microgram of RNA was reverse-transcribed using an iScript Reverse Transcription Supermix from Bio-Rad Laboratories (Hercules, CA, USA) to make single-stranded cDNA. The cDNAs were then mixed with Qi SYBR Green Supermix (Bio-Rad) for quantitative RT-PCR assay using a Bio-Rad I-cycler IQ quantitative thermocycler. All PCR samples were prepared in triplicate wells in a 96-well plate. After 40 cycles of PCR, melt curves were examined in order to ensure primer specificity. Fold changes in gene expression were calculated using the ΔΔCt method. Primers used for mouse were as follows: Oaz1 (5′-CCACTGCTTCGCCAGAGAG-3′) and (5′-CCCGGACCCAGGTTACTA-3′), Gli1 (5′- […]-3′ and 5′- GCT GATCCAGCCTAAGGTTCTC-3′), Ptch1 (5′-CCATCGGCGACAAGAACC-3′ and 5′-[…]-3′), Thbs1 (5′-[…]-3′ and 5′-CGGGGATCAGGTTGGCATT-3′), Cryab (5′-[…]-3′ and 5′-[…]-3′), Egr2 (5′-[…]-3′ and 5′-[…]-3′), CTGF (5′-GGGCCTCTTCTGCGATTTC-3′ and 5′-[…]-3′).
Figure 4 Inhibition of ligand-induced Hedgehog and TGFβ signaling in mouse fibroblast cells. NIH3T3 cells were pretreated for 2 h with Oxy210 or various inhibitors as indicated in DMEM containing 5% FBS. Next, cells were treated with CAPAN-1 conditioned medium (CM) in the absence or presence of oxysterols or inhibitors. After 72 h, RNA was extracted and analyzed by Q-RT-PCR for the expression of Hh target genes Gli1 and Ptch1 and normalized to Oaz1 expression (a,b). (c,e) NIH3T3 cells were treated in DMEM containing 0.1% BCS overnight and then pretreated for 2 h with the inhibitors as indicated in DMEM containing 0.1%BCS. The cells were then treated with TGFβ (20ng/mL) in the absence or presence of the compounds. After 48 h, RNA was extracted and analyzed by Q-RT-PCR for the expression of TGFβ target genes as indicated and normalized to Oaz1 expression. (d) NIH3T3 cells cultured in 24 well-plates were transfected with a Smad response element reporter (SBE-Luciferase) plasmid and a pTK-Renilla-Luciferase plasmid. 6 hrs after transfection, cells were treated with the test agents as indicated for 48 hrs. Luciferase activity was measured and normalized to the Renilla luciferase activity. Data from a representative experiment are reported as the mean of triplicate determinations ± SD (** p < 0.01 vs. CM (a,b) or TGFβ (c,d and e) treated cells; ## p < 0.01 vs. control).

Assay [2] has as its system H2030 cells. The experiment in a line: Cell counting (proliferation) assay in H2030 cells. Type of assay: cell-based, human. The following applies: for IC50 / IC90: Homo sapiens, NCI-H2030. The procedure: A549 and H2030 cells cultured in RPMI 1640 containing 5% FBS in 12 well-plates at 20% confluence were treated with Oxy210 for 6 days and then trypsinized, spun down and resuspended in fresh medium. For the Carboplatin (CP) and Oxy210 co-treatment experiments, A549 cells cultured in RPMI 1640 containing 2% FBS in 12 well-plates at 20% confluence were treated with CP at different concentrations in the presence or absence of Oxy210 for 6 days. For the TGFβ-induced drug resistance assay, A549 cells cultured in RPMI 1640 containing 2% FBS in 12 well-plates at 10% confluence were pre-treated with TGFβ1 alone or together with Oxy210 for 3 days, and then treated with 20 μM CP for 4 days. An aliquot of cell suspension was applied to a hemocytometer and the cells were then counted under a light microscope.
Statistical analyses were performed using the StatView 5 program (SAS Institute, Cary, NC, USA). All p values were calculated using ANOVA and Fisher’s projected least significant difference (PLSD) significance test. A value of p < 0.05 was considered significant. The IC 50 dose-response curves shown in Figure 4b and Figure 7a–c were modeled using a five-parameter logistic model. This model allows for asymmetric curves and automatically estimates the mean maximum and minimum response. Based on this model, IC 50 values were estimated corresponding to the dose halfway between min and max response. Models of dose versus response and dose versus log response were also evaluated (see Supplementary Materials). The R square statistic was computed as a measure of model fit.
Figure 7 Inhibition of NSCLC cell proliferation by Oxy210. A549 (a), (c) and H2030 (b) cells were treated with the test agents as indicated in RPMI 1640 containing 5% FBS for 5 days and then were trypsinized and counted as described in Methods and Materials section. Data from a representative experiment are reported as the mean of triplicate determinations ± SD (* p < 0.05 vs. control; ** p < 0.01 vs. control).

Read-outs that look alike come from different tables or passages of the source.

As a reminder, the IC90 is the concentration at which the effect reaches the 90% level. For `C[C@]12CC[C@H]3[C@@H](CC=C4C[C@@H](O)CC[C@@]43C)[C@@H]1CC[C@@H]2[C@](C)(O)CCc1cccnc1` [Oxy210, (3S,8S,9S,10R,13S,14S,17S)-17-((R)-2-hydroxy-4-(pyridin-3-yl)butan-2-yl)-10,13-dimethyl-2,3,4,7,8,9,10,11,12,13,14,15,16,17-tetradecahydro-1H-cyclopenta[a]phenanthren-3-ol], the “expression of TGFβ target genes CTGF, Egr2, Thbs1 and Cryab” value in assay [1] (48 h) was “strongly inhibited”. The “expression of CTGF induced by TGFβ” value in assay [1] (48 h (Figure 4e)) was “robustly inhibited”. The “IC10 Estimate, dataset 3 - Fig 7b, log 10 scale Y” value in assay [2] (H2030 cells/well, log 10 scale Y) was 1.89. Also, the IC10 Estimate, dataset 3 - Fig 7b, original scale Y in assay [2] (H2030 cells/well, original scale Y) is 420 nM. Also, the IC50 was 1660 ± 250 nM in assay [2] (H2030 cells, 5% FBS, ± SE, read-out: IC50, anti-proliferative effect (cell counting)) and 2520 nM in assay [2] (H2030 cells/well, log 10 scale Y, read-out: IC 50 Estimate, dataset 3 - Fig 7b, log 10 scale Y (converted)). Besides, the IC90 in assay [2] (H2030 cells/well, log 10 scale Y, read-out: IC90 Estimate, dataset 3 - Fig 7b, log 10 scale Y (converted)) was 3370 nM; in assay [2] (H2030 cells/well, original scale Y, read-out: IC90 Estimate, dataset 3 - Fig 7b, original scale Y), 4090 nM.

Values taken from article PMC6829886, “Inhibition of Non-Small Cell Lung Cancer Cells by Oxy210, an Oxysterol-Derivative that Antagonizes TGFβ and Hedgehog Signaling” (Cells, 2019).
